Results: publication PMC9317670, “Temporal and Wash-Out Studies Identify Medicines for Malaria Venture Pathogen Box Compounds with Fast-Acting Activity against Both Trypanosoma cruzi and Trypanosoma brucei” (Microorganisms, 2022)
Like-named read-outs stand apart in the source and are kept apart here. Values belong to the molecule of their own block, whether it stands above or below them.

How the values were obtained:
[1] = system: T. cruzi Tulahuen strain parasites in 3T3 host cells; set-up: method as in PMID 28674055; conditions: liquid stocks; ref [16]; read-out: IC50 T. cruzi in the previous studies; cited from earlier work
T. cruzi [2] = system: T. cruzi; set-up: method as in PMID 25583723; conditions: 96 h; ref [54]; read-out: IC50 T. cruzi following 96 h incubation; cited from earlier work
T.b. brucei [3] = system: T.b. brucei; set-up: method as in PMID 26258172; conditions: ref [53]; read-out: IC50 T.b. brucei, previously reported; cited from earlier work
[4] = system: T. cruzi Tulahuen strain parasites in 3T3 host cells; assay: T. cruzi 48 h image-based assay; format: cell-based, Trypanosoma cruzi
T. cruzi [5] = assay: T. cruzi temporal image-based assay, 24 h exposure; format: cell-based, Trypanosoma cruzi; conditions: for IC50: NA = not active at given concentration, read-out: IC50 24 h T. cruzi
T. cruzi [6] = assay: T. cruzi compound wash off assay (48 h with compound, wash off, 72 h without); format: cell-based, Trypanosoma cruzi; conditions: T. cruzi; for IC50 / Emax: 48 h incubation, wash off, further 72 h; for IC50: read-out: IC50 Wash Off; for Fold Change of IC50, wash off vs 48 h: IC50 from 48 h incubation to IC50 following wash off and further 72 h
T.b. brucei [7] = assay: T.b. brucei temporal viability (time-kill) assay, 48 h, PrestoBlue; format: cell-based, Trypanosoma brucei brucei; conditions: for IC50: read-out: IC50 48 h T.b. brucei; for Emax: read-out: Emax 48 h T.b. brucei (converted)
T.b. brucei [8] = assay: T.b. brucei temporal viability (time-kill) assay, 24 h, PrestoBlue; format: cell-based, Trypanosoma brucei brucei; conditions: for IC50: read-out: IC50 24 h T.b. brucei; for Emax: read-out: Emax 24 h T.b. brucei (converted)
Procedure: Time-kill assays was undertaken as previously described, using the REDOX reagent PrestoBlue® [24]. […] Control compounds were added at the same concentrations at outlined for the resazurin-based assays.

[9] = system: bovine peripheral blood mononuclear cells (PBMCs); set-up: method as in PMID 30771616; conditions: 24 h incubation; ref [55]; read-out: IC50 against bovine PBMCs; cited from earlier work
HEPG2 cells = assay: HEPG2 cytotoxicity assay; format: cell-based, human; conditions: HEPG2, 72 h, NA = not active, highest dose 79 µM unless given
[10] = system: T.b. brucei bloodstream 427 strain parasites; assay: T.b. brucei 72 h REDOX-based (resazurin) viability assay; format: cell-based, Trypanosoma brucei brucei; conditions: for SI (T.b. brucei) HEK: selectivity index in relation to HEK293 cells; for SI (T.b. brucei) (HEP): selectivity index in relation to HEPG2 cells
HEK293 cells = assay: HEK293 cytotoxicity assay; format: cell-based, human; conditions: HEK293, 72 h; NA = not active; highest dose 79 µM unless given
T. cruzi and T.b. brucei = assay: Speed of action and cidality classification from temporal and wash off assays; format: cell-based, Trypanosoma cruzi, Trypanosoma brucei brucei; conditions: for Speed of Action (FA/SA): TC = T. cruzi, TBB = T.b. brucei; for Speed of Action (Table 5): prioritised compounds, Fast/Slow
T.b. gambiense STIB930 = T.b. gambiense STIB930 assay, 72 h; format: cell-based; conditions: Trypanosoma brucei, unit inferred, read-out: IC50 T. Bg STIB930 (T.b. gambiense)
CYP1A2 = system: CYP1A2; set-up: method as in earlier work; conditions: Pathogen Box in vitro DMPK data; ref [10]; cited from earlier work
T.b. rhodesiense STIB900 = T.b. rhodesiense STIB900 assay, 72 h; format: cell-based; conditions: Trypanosoma brucei, read-out: IC50 T. bR (T.b. rhodesiense)
[11] = molecular target: T. cruzi recombinant CYP51 (TcCYP51) (Trypanosoma cruzi, UniProt Q7Z1V1); assay: biochemical
T. cruzi recombinant CYP51 (TcCYP51), sequence (Q7Z1V1 whole entry): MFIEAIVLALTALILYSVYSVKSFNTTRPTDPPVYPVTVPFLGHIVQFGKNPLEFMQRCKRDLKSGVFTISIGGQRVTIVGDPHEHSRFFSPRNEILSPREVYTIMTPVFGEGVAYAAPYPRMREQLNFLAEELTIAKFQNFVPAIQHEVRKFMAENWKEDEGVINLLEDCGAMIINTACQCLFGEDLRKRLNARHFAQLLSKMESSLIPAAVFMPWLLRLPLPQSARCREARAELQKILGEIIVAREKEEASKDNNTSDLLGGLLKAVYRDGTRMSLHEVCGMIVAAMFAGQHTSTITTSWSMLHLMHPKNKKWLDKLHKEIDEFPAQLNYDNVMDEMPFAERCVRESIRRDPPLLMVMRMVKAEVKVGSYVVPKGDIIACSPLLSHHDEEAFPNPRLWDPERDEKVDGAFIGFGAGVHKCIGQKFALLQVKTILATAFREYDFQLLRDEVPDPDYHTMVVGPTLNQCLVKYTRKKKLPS

[12] = in vivo, species not stated; ref [10]; cited from earlier work
[13] = ref [8]; cited from earlier work
[14] = control drugs; ref DrugBank; cited from earlier work
T. cruzi [15] = system: T. cruzi; set-up: method as in PMID 29016289; conditions: treated for 40 days; ref [4]; cited from earlier work
[16] = Trypanosoma cruzi, TULAHUEN, 48 h; read-out: Emax % (T. cruzi) (converted)
[17] = Trypanosoma cruzi, TULAHUEN, 48 h; read-out: IC50 (T. cruzi)
[18] = selectivity index in relation to 3T3 host cells; highest dose 3T3 73 µM
[19] = selectivity index in relation to HEK293 cells
[20] = selectivity index in relation to HEPG2 cells

SMILES: CC(C)=CCC/C(C)=C/CNCCNC1C2CC3CC(C2)CC1C3 (stereo not drawn) [MMV687273]
IC50 [1]: 5400 nM | IC50 (T. cruzi [2]): 500 to 1000 nM | IC50 (T.b. brucei [3]): 5000 nM | IC50 ([4]; Trypanosoma cruzi, TULAHUEN, 48 h, read-out: IC50 (T. cruzi)): 13000 nM

IC50 (T. cruzi [5]): 1600 ± 64 nM | IC50 (T. cruzi [6]): 130 ± 2.9 nM
SMILES: O=C(Nc1ccc(F)c(-c2nc3ncc(-c4ccccc4)cc3[nH]2)c1)N1CCCC1 [MMV 688372]
Emax 24 h T. cruzi (T. cruzi [5]): 75% | Emax 48 h T.b. brucei (T.b. brucei [7]): 100% | IC50 (T.b. brucei [7]): 13 ± 0.32 nM | Emax 24 h T.b. brucei (T.b. brucei [8]): 83% | IC50 (T.b. brucei [8]): 34 ± 2 nM | IC50 [9]: 5300 nM | IC50 (HEPG2 cells; read-out: IC50 (HEP) (converted)): 3600 nM | Emax % (T.b. brucei) ([10]; 72 h): 99% | IC50 ([10]; 72 h): 14 ± 2.4 nM | IC50 (HEK293 cells): 1800 ± 50.2 nM | Emax % (T. cruzi) ([4]; 48 h): 99% | Emax % (T. cruzi) ([4]; 48 h; listed as MMV688372): > 95% | IC50 ([4]; 48 h; read-out: IC50 (T. cruzi)): 130 ± 9.7 nM | Speed of Action (FA/SA) (T. cruzi and T.b. brucei): SA (TC) | Speed of Action (Table 5) (T. cruzi and T.b. brucei): Slow

SMILES: Cc1ccc(S(=O)(=O)Nc2ccc(CN3CCN(C(=O)c4cccc(C#N)c4)CC3)cc2)cc1 [MMV 689028]
Emax (T. cruzi [5]; Trypanosoma cruzi): 91% | IC50 (T. cruzi [5]; Trypanosoma cruzi): 1100 ± 430 nM | Fold Change of IC50, wash off vs 48 h (T. cruzi [6]): 0.86 fold | Emax (T. cruzi [6]; Trypanosoma cruzi): 99% | IC50 (T. cruzi [6]; Trypanosoma cruzi): 390 ± 20 nM | IC50 (T.b. gambiense STIB930): 48 ± 1.1 nM | CYP1A2 induction (CYP1A2): induced CYP1A2 activity | Emax (T.b. brucei [7]; Trypanosoma brucei): 99% | IC50 (T.b. brucei [7]; Trypanosoma brucei): 110 ± 3.2 nM | IC50 (T.b. rhodesiense STIB900; STIB900, 72 h, unit inferred): 280 ± 11 nM | Inhibition of TcCYP51 (in words) ([11]; criterion: IC50 within a log difference to posaconazole): nor exhibited TcCYP51 activity | Emax (T.b. brucei [8]; Trypanosoma brucei): 78% | IC50 (T.b. brucei [8]; Trypanosoma brucei): 720 ± 380 nM | IC50 (HEP) (HEPG2 cells): no activity | Emax ([10]; Trypanosoma brucei, 72 h): 99% | IC50 ([10]; Trypanosoma brucei, 72 h): 120 ± 30 nM | SI (T.b. brucei) HEK [10]: >658 (>658) | SI (T.b. brucei) (HEP) [10]: >658 (>658) | IC50 HEK (HEK293 cells): no activity | Half-life [12]: 6.8 h | Emax [4, 16]: 100% | IC50 [4, 17]: 700 ± 130 nM | SI (T. cruzi) 3T3 [4, 18]: >104 | SI (T. cruzi) HEK [4, 19]: >113 (>113) | SI (T. cruzi) (HEP) [4, 20]: >113 (>113) | Speed of Action (FA/SA) (T. cruzi and T.b. brucei): FA (Fast-acting (FA) = IC50 value can be determined following 24 h incubation, <10-fold difference in the IC50 value from 24 to 72 h) | Speed of Action (Table 5) (T. cruzi and T.b. brucei): Fast

SMILES: COc1ccc(S(=O)(=O)Nc2ccc(CN3CCN(C(=O)c4cccc(C#N)c4)CC3)cc2)cc1 [MMV 689029]
Emax (T. cruzi [5]; Trypanosoma cruzi): 90% | IC50 (T. cruzi [5]; Trypanosoma cruzi): 3700 ± 260 nM | Fold Change of IC50, wash off vs 48 h (T. cruzi [6]): 0.73 fold | Emax (T. cruzi [6]; Trypanosoma cruzi): 98% | IC50 (T. cruzi [6]; Trypanosoma cruzi): 880 ± 56 nM | IC50 (T.b. gambiense STIB930): 400 ± 120 nM | CYP1A2 induction (CYP1A2): induced CYP1A2 activity | Emax (T.b. brucei [7]; Trypanosoma brucei): 100% | IC50 (T.b. brucei [7]; Trypanosoma brucei): 400 ± 23 nM | IC50 (T.b. rhodesiense STIB900; STIB900, 72 h, unit inferred): 630 ± 110 nM | IC50 ([11]; top concentration 100 µM): > 100000 nM | Emax (T.b. brucei [8]; Trypanosoma brucei): 89% | IC50 (T.b. brucei [8]; Trypanosoma brucei): 980 ± 340 nM | Emax ([10]; Trypanosoma brucei, 72 h): 99% | IC50 ([10]; Trypanosoma brucei, 72 h): 420 ± 53 nM | SI (T.b. brucei) HEK [10]: >188 (>188) | SI (T.b. brucei) (HEP) [10]: >188 (>188) | Half-life [12]: 2.4 h | Emax [4, 16]: 100% | IC50 [4, 17]: 1200 ± 67 nM | SI (T. cruzi) 3T3 [4, 18]: >61 | SI (T. cruzi) HEK [4, 19]: >66 (>66) | SI (T. cruzi) (HEP) [4, 20]: >66 (>66) | Speed of Action (FA/SA) (T. cruzi and T.b. brucei): FA (Fast-acting (FA) = IC50 value can be determined following 24 h incubation, <10-fold difference in the IC50 value from 24 to 72 h) | Speed of Action (Table 5) (T. cruzi and T.b. brucei): Fast

SMILES: Nc1nc(N)nc(Nc2ccc([As]3SCC(CO)S3)cc2)n1 (stereo not drawn) [Melarsoprol, reference compound]
Fatality among patients in which encephalopathy develops [13]: 50% | Post-treatment reactive encephalopathy, share of all treated cases [13]: 5–10% | LogP [14]: 1.3 | IC50 (T.b. rhodesiense STIB900; 72 h): 15 ± 4 nM

SMILES: CC1(C)OB(O)c2cc(NC(=O)c3ccc(F)cc3C(F)(F)F)ccc21 [SCYX-7158]
Cure of mice infected with T. cruzi (T. cruzi [15]): 100%
